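Tested at 5 concentrations; 48 h exposure; 96-well plates; endpoints linearly interpolated, else capped at highest concentration. GI50 is the concentration that inhibits growth by half.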 Activity calls are given as the source filed them. Cut-off read from the data, not from the text of the source: active = GI50 up to about 1.1 µM and inactive = higher.
Key:
Assay in all cases: DTP human tumour cell line panel, 48 h
[1] = tested on: HOP-62
[2] = tested on: SF-295
[3] = tested on: ACHN
[4] = tested on: SNB-75
[5] = tested on: 786-0
[6] = tested on: HL-60
[7] = tested on: SW-620
[8] = tested on: MDA-MB-435
[9] = tested on: SNB-19
[10] = tested on: LOX IMVI
[11] = tested on: CAKI-1
[12] = tested on: SK-OV-3
[13] = tested on: NCI/ADR-RES
[14] = tested on: UACC-62
[15] = tested on: EKVX
[16] = tested on: M14
[17] = tested on: A549
[18] = tested on: SF-268
[19] = tested on: COLO 205

Compound	GI50 [1]	GI50 [2]	GI50 [3]	GI50 [4]	GI50 [5]	GI50 [6]	GI50 [7]	GI50 [8]	GI50 [9]	GI50 [10]	GI50 [11]	GI50 [12]	GI50 [13]	GI50 [14]	GI50 [15]	GI50 [16]	GI50 [17]	GI50 [18]	GI50 [19]
COc1c(C)c2c(c(O)c1C/C=C(\C)CCC(=O)O)C(=O)OC2 [MYCOPHENOLIC ACID]	6.44 µM (inactive)	0.632 µM (active)	1.75 µM (inactive)	6.81 µM (inactive)	0.667 µM (active)	1.43 µM (inactive)	0.571 µM (active)	0.871 µM (active)	0.706 µM (active)	0.401 µM (active)	0.805 µM (active)	1.43 µM (inactive)	2.97 µM (inactive)	0.881 µM (active)	> 100 µM (inactive)	1.58 µM (inactive)	0.659 µM (active)	1.37 µM (inactive)	1.08 µM (active)
Cc1c(Cl)ccc2c1NC(=O)C2(O)CC(=O)c1cccc2ccccc12 (stereo unspecified)	> 100 µM (inactive)	> 100 µM (inactive)	> 100 µM (inactive)	> 100 µM (inactive)	73.6 µM (inactive)	13.3 µM (inactive)	38.9 µM (inactive)		90.8 µM (inactive)	96.6 µM (inactive)	39.4 µM (inactive)	> 100 µM (inactive)		36.7 µM (inactive)	> 100 µM (inactive)	> 100 µM (inactive)	> 100 µM (inactive)	> 100 µM (inactive)	> 100 µM (inactive)
COC(=O)C1C2CC3C(OC(=O)C31)C2I (stereo unspecified)	> 100 µM (inactive)	> 100 µM (inactive)	> 100 µM (inactive)	> 100 µM (inactive)	> 100 µM (inactive)	> 100 µM (inactive)	> 100 µM (inactive)		> 100 µM (inactive)	> 100 µM (inactive)	> 100 µM (inactive)	> 100 µM (inactive)		> 100 µM (inactive)	> 100 µM (inactive)	> 100 µM (inactive)	> 100 µM (inactive)	> 100 µM (inactive)	> 100 µM (inactive)
O=C(O)c1cc(-c2ccc3c(O)c(O)ccc3c2)ccc1O	> 75 µM (inactive)	16.1 µM (inactive)	> 75 µM (inactive)	> 75 µM (inactive)	31.7 µM (inactive)	16.8 µM (inactive)	15 µM (inactive)	21.7 µM (inactive)	> 75 µM (inactive)	14.1 µM (inactive)	4.34 µM (inactive)	> 75 µM (inactive)	33.6 µM (inactive)	27 µM (inactive)	> 75 µM (inactive)	20.7 µM (inactive)	66.4 µM (inactive)	> 75 µM (inactive)	24.9 µM (inactive)
CNc1ccc([S+]([O-])Nc2ccccc2)cc1 (stereo unspecified)	58.3 µM (inactive)	41.5 µM (inactive)	84.7 µM (inactive)		53.8 µM (inactive)	26.1 µM (inactive)	70.8 µM (inactive)	34 µM (inactive)	> 100 µM (inactive)	41.9 µM (inactive)			65.6 µM (inactive)	23.4 µM (inactive)	30.5 µM (inactive)		45.6 µM (inactive)	25.9 µM (inactive)	26.4 µM (inactive)
CC(=O)[C@]1(C)[C@H](C)O[C@](C)(CO)[C@H]1O[Si](C)(C)c1ccccc1	> 100 µM (inactive)	53 µM (inactive)	46.7 µM (inactive)	> 100 µM (inactive)	81.5 µM (inactive)	18.4 µM (inactive)	73.6 µM (inactive)	50.1 µM (inactive)	> 100 µM (inactive)	20.4 µM (inactive)	17.9 µM (inactive)	> 100 µM (inactive)	37.3 µM (inactive)	97.9 µM (inactive)	46.3 µM (inactive)	83 µM (inactive)	56.6 µM (inactive)	54.5 µM (inactive)	56.6 µM (inactive)
COP(C)(=O)C1=CCN(C(=O)OCC[Si](C)(C)C)CC1 (stereo unspecified)	> 100 µM (inactive)	> 100 µM (inactive)	> 100 µM (inactive)	> 100 µM (inactive)	> 100 µM (inactive)		> 100 µM (inactive)	> 100 µM (inactive)	> 100 µM (inactive)	> 100 µM (inactive)	> 100 µM (inactive)	> 100 µM (inactive)	> 100 µM (inactive)	> 100 µM (inactive)	> 100 µM (inactive)	> 100 µM (inactive)	> 100 µM (inactive)	> 100 µM (inactive)	> 100 µM (inactive)
O=C1CCC(c2ccccc2)C(O)(C(=O)O)C1 (stereo unspecified)	> 100 µM (inactive)	> 100 µM (inactive)	> 100 µM (inactive)	> 100 µM (inactive)	> 100 µM (inactive)	> 100 µM (inactive)	> 100 µM (inactive)		> 100 µM (inactive)	> 100 µM (inactive)	> 100 µM (inactive)	> 100 µM (inactive)		> 100 µM (inactive)	> 100 µM (inactive)	> 100 µM (inactive)	> 100 µM (inactive)	> 100 µM (inactive)	> 100 µM (inactive)

From ChEMBL document CHEMBL1201862, “PubChem BioAssay data set” (2004)
